biological target: c-kit mutant D816V (Homo sapiens (Human), UniProt P10721, D816V/DEL694-753); assay: c-Kit mutant D816V biochemical assay (AlphaScreen kinase activity)
Outline: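 Recombinant His-tagged c-Kit D816V kinase domain (residues 551-934, insert 694-753 deleted, E. coli-expressed) phosphorylating 30 nM biotin-(E4Y)10 with 10 μM ATP, HEPES pH 7.2, Mg/Mn, 5% DMSO; 30 min, room temperature. Phosphorylation detected by AlphaScreen (streptavidin donor/PY30 acceptor beads); IC50 from 8-point 1:3 series.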

Sequence of c-kit mutant D816V (P10721 other isoform, or with tags, fused parts or gaps D816V/del 694-753): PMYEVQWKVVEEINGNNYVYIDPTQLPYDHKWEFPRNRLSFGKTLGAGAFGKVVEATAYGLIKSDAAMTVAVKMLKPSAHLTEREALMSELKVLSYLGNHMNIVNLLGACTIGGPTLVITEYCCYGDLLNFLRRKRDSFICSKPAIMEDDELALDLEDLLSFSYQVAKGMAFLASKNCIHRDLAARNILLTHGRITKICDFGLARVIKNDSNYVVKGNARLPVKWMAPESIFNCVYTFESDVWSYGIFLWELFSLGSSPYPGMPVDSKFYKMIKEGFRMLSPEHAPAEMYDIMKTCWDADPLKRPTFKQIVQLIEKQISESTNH

| SMILES | IC50 [µM] |
| --- | --- |
| CCc1ccc(-c2[nH]c(C3CCN(c4ncnc5[nH]c(-c6ccnc(OC)c6)cc45)CC3)nc2C)cc1 [P-3059, 4-[4-[5-(4-ethylphenyl)-4-methyl-1H-imidazol-2-yl]-1-piperidyl]-6-(2-methoxy-4-pyridyl)-7H-pyrrolo[2,3-d]pyrimidine] | 0.0001 to 1 |
| CCc1ccc(-c2[nH]c(C3CCN(c4ncnc5[nH]c(-c6ccc(F)cc6)cc45)CC3)nc2C)cc1 [P-3060, 4-[4-[5-(4-ethylphenyl)-4-methyl-1H-imidazol-2-yl]-1-piperidyl]-6-(4-fluorophenyl)-7H-pyrrolo[2,3-d]pyrimidine] | 0.0001 to 1 |
| CCc1ccc(-c2[nH]c(C3CCN(c4ncnc5[nH]c(-c6ccc(C#N)cc6)cc45)CC3)nc2C)cc1 [P-3061, 4-[4-[4-[5-(4-ethylphenyl)-4-methyl-1H-imidazol-2-yl]-1-piperidyl]-7H-pyrrolo[2,3-d]pyrimidin-6-yl]benzonitrile] | 0.0001 to 1 |
| Cc1ccc(-c2[nH]c(C3CCN(c4ncnc5[nH]c(-c6ccc(F)cc6)cc45)CC3)nc2C)cc1 [P-3062, 6-(4-fluorophenyl)-4-[4-[4-methyl-5-(p-tolyl)-1H-imidazol-2-yl]-1-piperidyl]-7H-pyrrolo[2,3-d]pyrimidine] | 0.0001 to 1 |
| COc1ccc(-c2[nH]c(C3(C)CCN(c4ncnc5[nH]c(C)cc45)CC3)nc2C)cc1 [P-3063, 4-[4-[5-(4-methoxyphenyl)-4-methyl-1H-imidazol-2-yl]-4-methyl-1-piperidyl]-6-methyl-7H-pyrrolo[2,3-d]pyrimidine] | 0.0001 to 1 |
| Cc1cc2c(N3CCC(C)(c4nc(C)c(-c5ccc(F)cc5)[nH]4)CC3)ncnc2[nH]1 [P-3064, 4-[4-[5-(4-fluorophenyl)-4-methyl-1H-imidazol-2-yl]-4-methyl-1-piperidyl]-6-methyl-7H-pyrrolo[2,3-d]pyrimidine] | 0.0001 to 1 |
| CCOc1ccc(-c2[nH]c(C3CCN(c4ncnc5[nH]c(-c6ccc(F)cc6)cc45)CC3)nc2C)cc1C [P-3065, 4-[4-[5-(4-ethoxy-3-methyl-phenyl)-4-methyl-1H-imidazol-2-yl]-1-piperidyl]-6-(4-fluorophenyl)-7H-pyrrolo[2,3-d]pyrimidine] | 0.0001 to 1 |
| CCOc1ccc(-c2[nH]c(C3CCN(c4ncnc5[nH]c(-c6ccc(C#N)cc6)cc45)CC3)nc2C)cc1C [P-3066, 4-[4-[4-[5-(4-ethoxy-3-methyl-phenyl)-4-methyl-1H-imidazol-2-yl]-1-piperidyl]-7H-pyrrolo[2,3-d]pyrimidin-6-yl]benzonitrile] | 0.0001 to 1 |
| CCOc1ccc(-c2[nH]c(C3CCN(c4ncnc5[nH]c(-c6ccnc(OC)c6)cc45)CC3)nc2C)cc1C [P-3067, 4-[4-[5-(4-ethoxy-3-methyl-phenyl)-4-methyl-1H-imidazol-2-yl]-1-piperidyl]-6-(2-methoxy-4-pyridyl)-7H-pyrrolo[2,3-d]pyrimidine] | 0.0001 to 1 |
| Cc1nc(C2CCN(c3ncnc4[nH]c(-c5ccc(F)cc5)cc34)CC2)[nH]c1-c1ccc2c(c1)OCO2 [P-3068, 4-[4-[5-(1,3-benzodioxol-5-yl)-4-methyl-1H-imidazol-2-yl]-1-piperidyl]-6-(4-fluorophenyl)-7H-pyrrolo[2,3-d]pyrimidine] | 0.0001 to 1 |
| Cc1nc(C2CCN(c3ncnc4[nH]c(-c5ccc(C#N)cc5)cc34)CC2)[nH]c1-c1ccc2c(c1)OCO2 [P-3069, 4-[4-[4-[5-(1,3-benzodioxol-5-yl)-4-methyl-1H-imidazol-2-yl]-1-piperidyl]-7H-pyrrolo[2,3-d]pyrimidin-6-yl]benzonitrile] | 0.0001 to 1 |
| COc1cc(-c2cc3c(N4CCC(c5nc(C)c(-c6ccc7c(c6)OCO7)[nH]5)CC4)ncnc3[nH]2)ccn1 [P-3070, 4-[4-[5-(1,3-benzodioxol-5-yl)-4-methyl-1H-imidazol-2-yl]-1-piperidyl]-6-(2-methoxy-4-pyridyl)-7H-pyrrolo[2,3-d]pyrimidine] | 0.0001 to 1 |
| CC(=O)Nc1cccc(-c2cc3c(N4CCC(c5nc(C)c(-c6ccccc6)[nH]5)CC4)ncnc3[nH]2)c1 [P-3071, N-[3-[4-[4-(4-methyl-5-phenyl-1H-imidazol-2-yl)-1-piperidyl]-7H-pyrrolo[2,3-d]pyrimidin-6-yl]phenyl]acetamide] | 0.0001 to 1 |
| COc1ccc(-c2cc3c(N4CCC(c5nc(C)c(-c6ccccc6)[nH]5)CC4)ncnc3[nH]2)cn1 [P-3072, 6-(6-methoxy-3-pyridyl)-4-[4-(4-methyl-5-phenyl-1H-imidazol-2-yl)-1-piperidyl]-7H-pyrrolo[2,3-d]pyrimidine] | 0.0001 to 1 |
| Cc1nn(C)cc1-c1cc2c(N3CCC(c4nc(C)c(-c5ccccc5)[nH]4)CC3)ncnc2[nH]1 [P-3073, 6-(1,3-dimethylpyrazol-4-yl)-4-[4-(4-methyl-5-phenyl-1H-imidazol-2-yl)-1-piperidyl]-7H-pyrrolo[2,3-d]pyrimidine] | 0.0001 to 1 |
| Cc1ccc(-c2cc3c(N4CCC(c5nc(C)c(-c6ccccc6)[nH]5)CC4)ncnc3[nH]2)cn1 [P-3074, 4-[4-(4-methyl-5-phenyl-1H-imidazol-2-yl)-1-piperidyl]-6-(6-methyl-3-pyridyl)-7H-pyrrolo[2,3-d]pyrimidine] | 0.0001 to 1 |

| SMILES | IC50 [µM] |
| --- | --- |
| CCOc1cc(-c2cc3c(N4CCC(c5nc(C)c(-c6ccccc6)[nH]5)CC4)ncnc3[nH]2)ccn1 [P-3075, 6-(2-ethoxy-4-pyridyl)-4-[4-(4-methyl-5-phenyl-1H-imidazol-2-yl)-1-piperidyl]-7H-pyrrolo[2,3-d]pyrimidine] | 0.0001 to 1 |
| Cc1nc(C2CCN(c3ncnc4[nH]c(-c5ccnc(N6CCOCC6)c5)cc34)CC2)[nH]c1-c1ccccc1 [P-3076, 4-[4-[4-[4-(4-methyl-5-phenyl-1H-imidazol-2-yl)-1-piperidyl]-7H-pyrrolo[2,3-d]pyrimidin-6-yl]-2-pyridyl]morpholine] | 0.0001 to 1 |
| Cc1nc(C2CCN(c3ncnc4[nH]c(-c5ccnc(N6CCC(C)CC6)c5)cc34)CC2)[nH]c1-c1ccccc1 [P-3077, 4-[4-(4-methyl-5-phenyl-1H-imidazol-2-yl)-1-piperidyl]-6-[2-(4-methyl-1-piperidyl)-4-pyridyl]-7H-pyrrolo[2,3-d]pyrimidine] | 0.0001 to 1 |
| Cc1nc(C2CCN(c3ncnc4[nH]c(-c5ccnc(OC(C)C)c5)cc34)CC2)[nH]c1-c1ccccc1 [P-3078, 6-(2-isopropoxy-4-pyridyl)-4-[4-(4-methyl-5-phenyl-1H-imidazol-2-yl)-1-piperidyl]-7H-pyrrolo[2,3-d]pyrimidine] | 0.0001 to 1 |
| Cc1nc(C2CCN(c3ncnc4[nH]c(-c5ccnc(N6CCCC6)c5)cc34)CC2)[nH]c1-c1ccccc1 [P-3079, 4-[4-(4-methyl-5-phenyl-1H-imidazol-2-yl)-1-piperidyl]-6-(2-pyrrolidin-1-yl-4-pyridyl)-7H-pyrrolo[2,3-d]pyrimidine] | 0.0001 to 1 |
| Cc1nc(C2CCN(c3ncnc4[nH]c(-c5cccc(OC(F)(F)F)c5)cc34)CC2)[nH]c1-c1ccccc1 [P-3080, 4-[4-(4-methyl-5-phenyl-1H-imidazol-2-yl)-1-piperidyl]-6-[3-(trifluoromethoxy)phenyl]-7H-pyrrolo[2,3-d]pyrimidine] | 0.0001 to 1 |
| Cc1nc(C2CCN(c3ncnc4[nH]c(-c5cccc(F)c5)cc34)CC2)[nH]c1-c1ccccc1 [P-3081, 6-(3-fluorophenyl)-4-[4-(4-methyl-5-phenyl-1H-imidazol-2-yl)-1-piperidyl]-7H-pyrrolo[2,3-d]pyrimidine] | 0.0001 to 1 |
| Cc1nc(C2CCN(c3ncnc4[nH]c(-c5cccc(NS(C)(=O)=O)c5)cc34)CC2)[nH]c1-c1ccccc1 [P-3083, N-[3-[4-[4-(4-methyl-5-phenyl-1H-imidazol-2-yl)-1-piperidyl]-7H-pyrrolo[2,3-d]pyrimidin-6-yl]phenyl]methane sulfonamide] | 0.0001 to 1 |
| Cc1nc(C2CCN(c3ncnc4[nH]c(-c5ccc(F)cc5)cc34)CC2)[nH]c1-c1ccc2c(c1)OCCO2 [P-3084, 4-[4-[5-(2,3-dihydro-1,4-benzodioxin-6-yl)-4-methyl-1H-imidazol-2-yl]-1-piperidyl]-6-(4-fluorophenyl)-7H-pyrrolo[2,3-d]pyrimidine] | 0.0001 to 1 |
| Cc1nc(C2CCN(c3ncnc4[nH]c(-c5ccc(F)cc5)cc34)CC2)[nH]c1-c1ccc(OC(F)(F)F)cc1 [P-3085, 6-(4-fluorophenyl)-4-[4-[4-methyl-5-[4-(trifluoromethoxy)phenyl]-1H-imidazol-2-yl]-1-piperidyl]-7H-pyrrolo[2,3-d]pyrimidine] | 0.0001 to 1 |
| Cc1nc(C2CCN(c3ncnc4[nH]c(-c5ccc(C#N)cc5)cc34)CC2)[nH]c1-c1ccc(OC(F)(F)F)cc1 [P-3086, 4-[4-[4-[4-methyl-5-[4-(trifluoromethoxy)phenyl]-1H-imidazol-2-yl]-1-piperidyl]-7H-pyrrolo[2,3-d]pyrimidin-6-yl]benzonitrile] | 0.0001 to 1 |
| COc1cc(-c2cc3c(N4CCC(c5nc(C)c(-c6ccc(OC(F)(F)F)cc6)[nH]5)CC4)ncnc3[nH]2)ccn1 [P-3087, 6-(2-methoxy-4-pyridyl)-4-[4-[4-methyl-5-[4-(trifluoromethoxy)phenyl]-1H-imidazol-2-yl]-1-piperidyl]-7H-pyrrolo[2,3-d]pyrimidine] | 0.0001 to 1 |
| COc1cc(-c2cc3c(N4CCC(c5nc(C)c(-c6ccc(C)cc6)[nH]5)CC4)ncnc3[nH]2)ccn1 [P-3088, 6-(2-methoxy-4-pyridyl)-4-[4-[4-methyl-5-(p-tolyl)-1H-imidazol-2-yl]-1-piperidyl]-7H-pyrrolo[2,3-d]pyrimidine] | 0.0001 to 1 |
| COc1ccc(-c2[nH]c(C3(C)CCN(c4ncnc5[nH]c(-c6ccc(C#N)nc6)cc45)CC3)nc2C)cc1C [P-3250, 5-[4-[4-[5-(4-methoxy-3-methyl-phenyl)-4-methyl-1H-imidazol-2-yl]-4-methyl-1-piperidyl]-7H-pyrrolo[2,3-d]pyrimidin-6-yl]pyridine-2-carbonitrile] | 0.0001 to 1 |
| CCOc1ccc(-c2[nH]c(C3(C)CCN(c4ncnc5[nH]c(-c6ccc(C#N)nc6)cc45)CC3)nc2C)cc1 [P-3251, 5-[4-[4-[5-(4-ethoxyphenyl)-4-methyl-1H-imidazol-2-yl]-4-methyl-1-piperidyl]-7H-pyrrolo[2,3-d]pyrimidin-6-yl]pyridine-2-carbonitrile] | 0.0001 to 1 |
